For experiment [1], the system named is HIV-1JR-FL envelope-mediated membrane fusion. In kind it is cell-based. The source says: HIV-1 envelope-mediated membrane fusion was examined using a fluorescence resonance energy transfer (RET) assay (Litwin et al. 1996) with modifications. Briefly, HeLa cells that stably express HIV-1JR-FL gp120/gp41 (Litwin et al. 1996) and CEM.NKR-CCR5 cells (NTH AIDS Research and Reference Reagent Program, (Spenlehauer et al. 2001; Trkola et al. 1999)) were labeled separately overnight with fluorescein octadecyl ester (F18; Molecular Probes, Eugene, Oreg.) and rhodamine octadecyl ester (R18; Molecular Probes), respectively. Cells were washed in phosphate-buffered saline containing 15% feral bovine serum (PBSF) and co-seeded at 15,000 cells/well into a 384-well plate. Inhibitors were added, and the plates were incubated in PBSF plus 0.5% dimethlysulfoxide (DMSO) for 4h at 37°C. prior to measurement of RET using a Victor^2 plate reader (Perkin-Elmer, Boston, Mass.) as previously described (Litwin et al. 1996). The CD4 mAb Leu3a was used as a control inhibitor, and percent inhibition was calculated as: (RET in the absence of inhibitor—RET in the presence of inhibitor)/(RET in the absence of inhibitor—RET in the presence of Leu3a)×100.
(§1) Experimental design and data analysis were based on the combination index (CI) method (Chou et al. 1991; Chou et al. 1984). Compounds were tested individually and in combination at a fixed molar ratio over a range of serial dilutions. […] The mutually exclusive CI formula was used for combinations of CCR5 inhibitors, while the mutually non-exclusive formula was utilized for combinations of inhibitors to distinct targets (Chou et al. 1991). Each test was conducted 4-12 times. Synergy, additivity and antagonism are indicated by CI<1, CI=1 and CI>1, respectively.
(§2) In the Bonferroni correction, P=.alpha,/h, where n is the number of comparisons. Twenty-two synergy comparisons (11 compounds×2 CI values) were made based on data generated in the membrane fusion assay, resulting in a corrected P value of0.0023.

For experiment [2], the system named is reporter viruses pseudotyped with HIV-1JR-FL envelope. In kind it is cell-based. To be noted: HIV-1 Envelope JRFL; named 1st inhibitor with 2nd inhibitor PRO 140.
Description: (§3) A self-inactivating (SIN) vector was derived from the pNL4-3ΔEnv-luciferase vector (Dragic et al. 1996) by deleting 507 basepairs in the U3 region of the 3′ long terminal repeat (LTR) so as to remove the TATA, box and transcription factor binding sites. The human cytomegalovirus promoter was inserted upstream of the luciferase (luc) gene to enable expression of luciferase following integration.
(§4) SF162 envelopes were generated by cotransfection of 293T cells with the SIN vector and the appropriate pcDNA env-expressing vector as previously described (Dragic et al, 1996). […] Cultures were incubated for 72 h at 37°C. in DMEM containing 10% fetal bovine serum, […], 0.3 mg/mL geneticin, antibiotics, and 0.5% DMSO. Luciferase activity (relative light units or RLU) was measured using BrightGlo reagent (Promega, Madison, Wis.) according to the manufacturer's instructions. Percent inhibition was calculated as: (1-RLU in the presence of inhibitor/RLU in the absence of inhibitor)×100.
as §1, §2

Experiment [3] deals with reporter viruses pseudotyped with HIV-1SF162 envelope. In kind it is cell-based. To be noted: HIV-1 Envelope SF162; named 1st inhibitor with 2nd inhibitor PRO 140.
Description: as §3, §4, §1, §2

Experiment [4] deals with T1, CCR5 (Homo sapiens, UniProt P51681). In words: Competition binding: inhibition of PRO 140-PE binding to CEM.NKR-CCR5 cells. On the set-up: host or cells: CEM.NKR-CCR5 (transduced human T cell leukemia line). Here is the method:
Azide was added to block CCR5 internalization during the assay.

Experiment [5] concerns the target T1, CCR5. Nature of the experiment: Competition binding: inhibition of 3H-UK-427,857 binding to CEM.NKR-CCR5 cells. On the set-up: host or cells: CEM.NKR-CCR5 (transduced human T cell leukemia line).
Description: The cells were washed in PBSA and lysed with 0.5N HCl prior to scintillation counting using a Wallac1410 instrument.
In experiment [6] the test system is HIV-1 Env-mediated fusion of HeLa-EnvJRFL and CEM NKR-CCR5 cells. Nature of the experiment: HIV-1 RET cell-cell fusion assay (Part II, Example 1). As to conditions: PRO 140 in combination with the named compound; for Mean CF: 1:1 molar ratio, Combination Index at IC50 value. The format is cell-based. The procedure: and then diluted in DMSO to 200× the final, concentration to be utilized in the antiviral assay. Serial dilutions of small molecules were conducted in DMSO. Subsequent dilutions were conducted in medium to achieve a final DMSO concentration in the assay of 0.5%. Peptides and mAbs were diluted in PBS in the absence of DMSO.
HeLa cells were engineered to express HIV-1 gp120/gp41 from the macrophage-tropic primary isolate JRFL as described (HeLa-EnvJRFL: Litwin et al., 1996). Briefly, the HIV-1LA1 Env gene was excised from the plasmid pMA243 (Dragic et al., 1992) and the HIV-1JRFL Env gene was inserted. The HIV-1.sub JRFL Env gene was amplified from the plasmid pUCFL112-1 (Koyanagi et al., 1987). The resulting plasmid, designated JR-FL-pMA243, was sequenced by standard methods and transfected into HeLa cells using lipofectin (Gibco BRL/Invitrogen, Carlsbad, Calif.). HeLa-Env.sub JRFL transfectants were selected in methotrexate (Sigma, St. Louis, Mo.) and cloned twice by limiting dilution. The transduced human T cell leukemia line CEM NKR-CCR5 cells were obtained from the NIH AIDS Research and Reference Program (Cat. No. 458).
The HIV-1 RET assay has been described in detail previously (Litwin et al., 1996). Briefly, fluorescein octadecyl ester (F18; Molecular Probes, Eugene, Oreg.; 5 mg/ml in ethanol), was diluted 1:800 in DMEM labeling medium (DMEM; Invitrogen, Carlsbad, Calif.) with 10% fetal bovine serum (FBS; HyClone, Logan, Utah) and adjusted to an A506 of 0.34.+−0.10%. Octadecyl rhodamine B chloride (R18; Molecular Probes; 10 mg/ml in ethanol) was diluted 1:2050 in labeling medium and adjusted to an A565 of 0.52.+−0.10%. Both dyes were further diluted 2-fold by addition to cells in T75-cm^2 flasks. HeLa-EnvJRFL and CEM NKR-CCR5 cells were incubated overnight in F18- and R18-containing culture medium, respectively. The following day, medium from HeLa-EnvJRFL, cells was removed and 10 ml of 0.5 mM EDTA was added and incubated at 37°C. for 5 min. […] The centrifugation/wash step was repeated twice, after which the cells were counted and concentrations adjusted to 1.5×10^6 cells/ml. […] The plates were then read on a fluorescence plate reader (Victor^2, Perkin Elmer, Boston, Mass.) using the excitation/emission filter combinations shown in Table 5.
The “% Inhibition” was calculated according to the following formula: […]
Fifty percent inhibition (IC50) values were determined by fitting the inhibition data with a non-linear, four-parameter, variable slope equation (GraphPad Prism 4.02; GraphPad Software, San Diego, Calif.). […]
Cooperative inhibition effects of drug combinations were determined by the method of Chou and Talalay (1984). […] Combination Index (CI) and Dose Reduction (DR) values were calculated according to the following formulas: […]

The mark [7] stands for this setting: named 1st inhibitor with 2nd inhibitor PRO 140, equimolar.
Setting [8] is: named 1st inhibitor with 2nd inhibitor UK-427,857, equimolar.

Read-outs that look alike come from different tables or passages of the source.

T1 sequence (P51681 whole entry): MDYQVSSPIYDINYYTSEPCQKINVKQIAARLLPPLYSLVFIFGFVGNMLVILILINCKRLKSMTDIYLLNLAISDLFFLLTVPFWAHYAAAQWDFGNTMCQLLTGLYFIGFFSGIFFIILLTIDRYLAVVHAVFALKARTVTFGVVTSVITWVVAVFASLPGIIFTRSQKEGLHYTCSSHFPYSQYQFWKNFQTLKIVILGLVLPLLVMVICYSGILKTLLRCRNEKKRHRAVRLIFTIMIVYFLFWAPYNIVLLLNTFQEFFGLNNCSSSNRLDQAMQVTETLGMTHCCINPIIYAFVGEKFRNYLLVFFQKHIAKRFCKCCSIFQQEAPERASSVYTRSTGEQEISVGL

In the case of `COc1ccnc2[nH]cc(C(=O)C(=O)N3CCN(C(=O)c4ccccc4)C[C@H]3C)c12` [BMS-378806, (R)-N-(benzoyl)-3-methyl-N′-[(4-methoxy-7-azaindol-3-yl)-oxoacetyl]-piperazine], in experiment [1] (setting [7]), the C190 worked out at 1.1 ± 0.22 and the CI50 was found to be 1.3 ± 0.19. In addition, the CI190 in experiment [2] was 0.74 ± 0.23. Moreover, the CI190 in experiment [3] turned out to be 0.82 ± 0.21.

As for `COC[C@@H](c1ccc(C(F)(F)F)cc1)N1CCN(C2(C)CCN(C(=O)c3c(C)ncnc3C)CC2)C[C@@H]1C` [SCH-D], the C190 in experiment [1] (setting [7]) was determined as 0.36 ± 0.06; in experiment [1] (setting [8]), 0.75 ± 0.02. For the same molecule, the CI190 in experiment [2] turned out to be 0.18 ± 0.04; in experiment [3], 0.28 ± 0.11. For the same molecule, in experiment [4], the “impact on percent of cells gated for positive binding of PRO 140-PE” value is “little impact”. Also, the “inhibition of PRO 140-PE binding to CEM.NKR-CCR5 cells” value in experiment [4] (in words) was “modest levels of inhibition”. The “inhibition of 3H-UK-427,857 binding” value in experiment [5] is reported as “blocked ^3H-UK-427,857 binding to background levels”.

In the case of `Cc1nnc(C(C)C)n1C1CC2CCC(C1)N2CC[C@H](NC(=O)C1CCC(F)(F)CC1)c1ccccc1` (some centres unmarked) [UK-427,857], the “Mean CF” value in experiment [6] is reported as 0.59 ± 0.04. In experiment [1] (setting [7]), the C190 is listed as 0.40 ± 0.06 and the CI50 is reported as 0.61 ± 0.5.

For `Cc1ccnc2c1NC(=O)c1cccnc1N2C1CC1` [nevirapine], the CI190 in experiment [2] worked out at 0.73 ± 0.28; in experiment [3], 0.63 ± 0.19.

As for `Cc1cn([C@H]2C[C@H](N=[N+]=[N-])[C@@H](CO)O2)c(=O)[nH]c1=O` [zidovudine], the CI190 in experiment [2] stood at 0.85 ± 0.26; in experiment [3], 1.0 ± 0.38.

B1: RANTES: CC-chemokine that serves as a natural ligand for CCR5; purchased from R&D Systems (protein, UniProt P13501 24-91, looked up)
C-C motif chemokine 5: SPYSSDTTPCCFAYIARPLPRAHIKEYFYTSGKCSNPAVVFVTRKNRQVCANPEKKWVREYINSLEMS
For the molecule B1, in experiment [6], the “Mean CF” value was determined as 0.59 ± 0.08. The “Mean Dose Reduction (Cpd in combination)” value is reported as 1.75 ± 0.28 in experiment [6] (molar ratio 1:5) and 5.39 ± 1.13 in experiment [6] (molar ratio 5:1). The C190 in experiment [1] (setting [7]) was determined as 0.43 ± 0.05; in experiment [1] (setting [8]), 0.18 ± 0.01.

These data come from patent US20170049884A1, “USE OF ANTI-CCR5 ANTIBODIES IN GRAFT VERSUS HOST DISEASE” (CytoDyn Inc., priority 2014, published 2017).
